Source: US20030124727A1, “Multivalent cationic lipids and methods of using same in the production of lipid particles” (priority 2001, published 2003)

Key:
[1] = 31P NMR polymorphic phase properties of cationic lipid/DPPS mixtures (bilayer-to-non-bilayer transition); type: physicochemical; conditions: for temperature at which the mixture adopts the H∥ phase / non-bilayer structure: mixture with DPPS equimolar with respect to charge, hydrated in distilled water; for 31P NMR lineshape (phase structure) at 25° C.: mixture with DPPS
Description: As noted above, the ability of cationic lipids to induce the hexagonal H∥ phase in combination with anionic lipids correlates well with their transfection properties in plasmid DNA-cationic lipid complexes. The relative ability of cationic lipids to induce the H∥ phase can be ascertained by measuring the bilayer-to-non-bilayer transition temperature (Tc) of the cationic lipid in equimolar mixtures (with respect to charge) with an anionic phospholipid such as 1,2-dipalmitoyl-sn-glycero-3-[phospho-L-serine] (DPPS). The bilayer-to-non-bilayer transition can be conveniently monitored employing ^31P NMR techniques (12).
To evaluate the polymorphic phase properties of mixtures of TODMAC3 and TODMAC6 with DPPS, lipid mixtures containing 40-50 mg DPPS and appropriate molar ratios of cationic lipids N,N-dioleyl-N-N-dimethylammonium chloride (DODAC), TODMAC3, and TODMAC6 were prepared by drying from chloroform solution, placed in 10 mm NMR tubes and hydrated with 1.5 mL distilled water. Free induction decays (FIDs) corresponding to 1000 scans were obtained by using a […] 60° pulse with a […] interpulse delay and a spectral width of 25,000 Hz. A gated two-level proton decoupling was used to ensure sufficient decoupling with minimum sample heating. An exponential multiplication corresponding to 50 Hz of line broadening was applied to the FIDs prior to Fourier transformation. The sample temperature (±1° C.) was regulated using a Bruker B-VT1000 variable temperature unit. Chemical shifts were referenced to 85% phosphoric acid as an external standard.

BHK cells = assay: In vitro transfection of BHK cells with plasmid DNA-cationic lipid complexes (luciferase expression); type: cell-based, hamster; conditions: for transfection properties compared among DODAC, TODMAC6 and TODMAC3: complexes formed from ethanol solution, no DOPE, FIG. 4; for transfection potency relative to complexes containing DODAC: cationic lipid/DOPE vesicles, LO18 luciferase plasmid, FIG. 3
Method: Lipoplexes were prepared in distilled water at pDNA concentrations ranging from 12.5-25 μg pDNA/ml at positive-to-negative charge ratios between 0.5-5. Plasmid DNA was added under vortexing to cationic LUVs (cationic lipid/DOPE 1:1). In the absence of the helper lipid DOPE, lipoplexes were prepared by addition of the cationic lipids from ethanol solutions to an aqueous solution containing the pDNA. The amount of ethanol in these formulations was between 0.4-2.3%. The lipoplexes were incubated at room temperature for 30 min, diluted to a final concentration of 2.5 μg pDNA/ml with serum-free media (Dulbecco's Modified Eaglels Medium, DMEM) and subsequently applied to BHK cells.
BHK cells, grown in DMEM supplemented with 10% fetal calf serum (FCS), 100 U/ml of penicillin and 100 μg/ml of streptomycin, were seeded in 96-well plates at a density of 1×10^4 cells per well 24 h before transfection. The next day media was removed and replaced with 100 μl of lipoplexes dispersed in serum-free DMEM (0.25 μg pDNA/100 μl), After 4 hr, lipoplexes were replaced with serum-containing DMEM and cells further incubated for 20 h. After that, the culture medium was aspirated, the cells washed twice with 100 μl of PSS and then lysed through addition of 50 μl of lysis buffer (1% Triton X-100 in PBS). Luciferase activity was measured with a Dynex Luminometer (Dynex model ML3000) using the Luciferase Assay Kit from Promega. The total protein concentration per well was determined using the BCA assay from Pierce. Means and standard deviations were calculated from three independent experiments.
(§1) DNA plasmid complexes containing TODMAC3 and TODMAC6 are usually formed by mixing plasmid DNA with preformed vesicles containing the cationic lipid mixed with equimolar amounts of the- “helper” lipid- dioleoyfphosphatidylethanolamine (DOPE) (17, 1-8). […] FIG. 3 illustrates the transfection properties of complexes prepared at cationic lipid-to-DNA charge ratios (positive to negative) ranging from 0.5 to 5.
In order to test the relative transfection potencies of DODAC, TODMAC6 and TODMAC3 a different procedure was used to associate the cationic lipid with the plasmid to form the complexes. In this method the cationic lipid dissolved in ethanol was introduced into an aqueous solution of the plasmid and DOPE was not present. […] Specifically, for charge ratios −2.5, TODMAC6 complexes gave rise to luciferase expression levels 5-20 fold higher than could be achieved with DODAC or TODMAC3.

[2] = Preparation of vesicles / bilayer structures on dispersion in aqueous medium; type: physicochemical; conditions: for preparation of vesicles from cationic lipid/DOPE mixtures: equimolar mixture with DOPE, hydration of lipid film and extrusion; for formation of bilayer structures on dispersion in an aqueous medium: in the presence and absence of DOPE
Method: To prepare large unilamellar vesicles (LUV), mixtures of cationic lipids and DOPE in chloroform were dried under a stream of nitrogen gas and the residual solvent removed under high vacuum for 2 hours. The resulting lipid films were hydrated with distilled water. LUVs were obtained by extruding the lipid dispersions 10 times through two stacked 100-nm pore size polycarbonate filters (Costar Nuclepore polycarbonate membrane, Lipex Biomembranes extruder) (15). Phospholipid concentrations were determined by the inorganic phosphorus assays according to Fiske and Subbarow (16).
as §1

temperature at which the mixture adopts the H∥ phase / non-bilayer structure ([1]; 31P NMR)	31P NMR lineshape (phase structure) at 25° C. [1]	preparation of vesicles from cationic lipid/DOPE mixtures [2]	formation of bilayer structures on dispersion in an aqueous medium [2]	temperature at which an H∥ component is visible (limited subset of the DPPS; bulk remains bilayer) ([1]; TODMAC3/DPPS 0.5:1 mol:mol (equimolar in charge), 31P NMR)	temperature of apparently complete H∥ organization ([1]; TODMAC3/DPPS ratio 2:1 on a charge basis)	SMILES	transfection properties compared among DODAC, TODMAC6 and TODMAC3 (BHK cells; charge ratios of two and lower)	phase properties of equimolar mixture with DPPS ([1]; equimolar (mol) proportions of TODMAC3 and DPPS, compared with 0.5:1)	transfection potency relative to complexes containing DODAC (BHK cells; charge ratios higher than two (up to 5))	transfection potency relative to complexes containing DODAC (BHK cells; charge ratios of two or lower)	transfection properties compared among DODAC, TODMAC6 and TODMAC3 (BHK cells; charge ratios above two)	luciferase expression levels higher than could be achieved with DODAC or TODMAC3 (BHK cells; complexes without DOPE, charge ratios −2.5)
> 35 °C	bilayer structure	–	–	–	–	CCCCCCCC/C=C\CCCCCCCC[N+](C)(C)CCCCCCCC/C=C\CCCCCCCC.[Cl-] [DODAC, N,N-dioleyl-N-N-dimethylammonium chloride, reference compound]	superior	–	–	–	–	–
–	–	could not be prepared	does not	≤ 15 °C	≥ 25 °C	CCCCCCCC/C=C\CCCCCCCC[N+](C)(CCCCCCCC/C=C\CCCCCCCC)CCC[N+](C)(CCCCCCCC/C=C\CCCCCCCC)CCCCCCCC/C=C\CCCCCCCC.[Cl-].[Cl-] [TODMAC3, N,N,N1,N1-Tetraoleyl.N,N′-dimethyl-1,3-propanediammonium Chloride]	–	increased preference for H∥ phase structure	–	–	–	–
~30 °C	bilayer structure	could be readily prepared	readily forms bilayer structures	–	–	CCCCCCCC/C=C\CCCCCCCC[N+](C)(CCCCCCCC/C=C\CCCCCCCC)CCCCCC[N+](C)(CCCCCCCC/C=C\CCCCCCCC)CCCCCCCC/C=C\CCCCCCCC.[Cl-].[Cl-] [TODMAC6, N,N,N′,N′-Tetraoleyl-N,N′-dimethyl-1,6-hexanediammonium chloride]	–	–	greater	comparable to or slightly lower	superior to both DODAC and TODMAC3	5-20 fold
